Reference: patent US5098927A, “Antiretroviral agent, method of use thereas, and method of preparation” (Fujisawa Pharmaceutical Co., Ltd., priority 1989, dated 1992)

Columns and labels:
[1] = Stability and hygroscopicity; type: physicochemical; details: compared with the pyrroline compound (I)
Friend leukemia virus [2] = assay: Inhibitory effect on the induction of splenomegaly by Friend leukemia virus in mice; type: in vivo, mouse (male C3H/HeN); details: combination with azidothymidine (AZT); no data given
inflammation = assay: Anti-inflammatory activity (general statement); details: stated in words
Friend leukemia virus [3] = assay: Inhibitory effect on the induction of splenomegaly by Friend leukemia virus in mice; type: in vivo, mouse (male C3H/HeN); details: for inhibition of splenomegaly in mice (in words): Friend leukemia virus; for Spleen weight / Inhibition: day 14; for Inhibition: percent inhibition of infection from spleen weight
Description: Male C3H/HeN mice (5 weeks old) were intraperitoneally inoculated with 3.1 × 10^1 MID50 /mouse of Friend leukemia virus (in 0.2 ml) and then, after this infection procedure, the active ingredient [compound (I) or compound (II)] of the present invention was administered at a specified dose in the form of a solution in sterile physiological saline by the route specified below (Experiment 1 or 2). On day 14 after infection, the mice were sacrificed by exsanguination and the spleen weight (in mg) was measured for evaluating the inhibitory effect of the compound (I) and (II) on the induction of splenomegaly. In each experiment, the control group consisted of mice given no active ingredient after infection with Friend leukemia virus. The percent inhibition of infection was calculated as follows: [formula] The compound (I) was intravenously administered 4 hours after infection (day 0) and then twice daily on days 1 to 4 and days 7 to 11 (19 times in total). The compound (II) was orally administered 1 hour after infection and then according to the same schedule as in Experiment 1. The compound (II) used was in the α form, namely the compound (II'). Friend leukemia virus used in the above test is known to be a lymphotropic retrovirous, like HIV. Since the extent of splenomegaly in mice induced by said virus is proportional to the proliferation of said virus, the inhibitory effect of an agent on the proliferation of Friend leukemia virus can be estimated by assaying its inhibitory effect on the splenomegaly in mice.

[4] = Acute toxicity testing in mice; type: in vivo, mouse (ddY, female)
Description: The compound (I) was administered to mice (ddY strain, female, 5 weeks old) at a dose of 1 g per kg body weight by intravenous injection.

[5] = tested on: cytopathic effect of HIV: LAV-1-infected CEM cells / Molt4 (clone 8) cells; assay: Inhibitory effect on the cytopathic effect of HIV (syncytium/giant cell formation); type: cell-based, human immunodeficiency virus (LAV-1)
Description: The inhibitory effect of the compound (I) on the cytopathic effect (syncytium formation) by HIV infection on T lymphocytes was evaluated in the following manner.
(1) CEM cells infected with LAV-1 were washed twice with RPMI 1640 medium and a cell suspension (1 × 10^6 cells/ml) was prepared using the same medium. The suspension was distributed in 100-μl portions into culture tubes (16 × 125 mm). Complete medium^*1 containing the compound (I) in several specified concentrations was added to the culture tubes and incubation was performed in the presence of 5% carbon dioxide a 37° C. for 3 days.
The LAV-1-infected CEM cells thus cultured were washed twice with RPMI 1640 medium and then adjusted to 4 × 10^5 cells/ml with the complete medium.
[*1: RPMI 1640 medium supplemented with 20% fetal calf serum, 2.5 mM glutamine, kanamycin (100 μg/ml) and penicillin G (100 units/ml)]
(2) Molt4 (clone 8) cells were washed twice with RPMI 1640 medium and then adjusted to 2 × 10^6 cells/ml with the complete medium.
(3) The LAV-1-infected CEM cell suspension in complete medium prepared in (1) and the Molt4 (clone 8) cell suspension in complete medium prepared in (2) were respectively distributed in 50-μl portions into 96 well flat bottomed tissue culture plate, followed by further addition of 50 μl of each solution of the compound (I) in complete medium to each well, which was, in advance, prepared to give a final concentration of compound (I) of 100 μg/ml, 50 μg/ml, 20 μg/ml or 10 μg/ml (the final volume in each well being 150 μl).
(4) The above tissue culture plate was incubated at 37° C. in the presence of 5% carbon dioxide for 16 hours and then the giant cells resulting from cytopathic alteration of Molt4 (clone 8) cells were counted within the visual field of a microscope (magnification × 400).
The compound (II) was also evaluated for the same inhibitory effect (the α isomer, i.e. the compound (II'), was selected as a representative of the compound (II)).

α-glucosidase = details: stated without data; cited from earlier work
[6] = tested on: immunosuppressive factors; details: stated without data; cited from earlier work
[7] = tested on: Type II collagen-induced arthritis; assay: Type II collagen-induced arthritis in rats; type: in vivo, rat (female Lewis); details: oral, means ± SEM
Description: (2R, 3S, 4R, 5R)-3,4-dihydroxy-5-hydroxymethyl-2-pyrrolidinesufonic acid (compound (II'))
Inbred 7-week-old female Lewis rats were handled under specific pathogen-free conditions and acclimated to the new environment for a week before use.
Type II bovine collagen was dissolved at 4° C. in 0.01M acetic acid at a concentration of 2 mg/ml. The solution was emulsified in an equal volume of incomplete Freund's adjuvant. Rats were anesthetized with sodium pentobarbital (30 mg/kg, i.p.) and the backs of rats were shaved. Under anesthesia, each rat was immunized with 0.8 ml of the cold emulsion by several intradermal injections on the depilated back and one or two injections into the base of the tail.
The test compound was dissolved in distilled water and administered orally at various doses in 5 ml/kg. From the day of immunization, the test compound or vehicle was administered once a day for 2 weeks.
The extent of arthritis was expressed as the increase in paw volume of each rat. The volume of both hind legs below the knee joint was measured with a plethysmometer. The rats were immunized on day 0 and the paw volume was measured on day 12 and 14. Mean increases in the paw volume of each group was calculated and the result was expressed as means ± SEM. Each group consisted of 10 rats.

## O=S(=O)(O)C1N[C@H](CO)[C@@H](O)[C@@H]1O (some centres unmarked) [(II)]
[1]
  hygroscopicity: less hygroscopic than the pyrroline compound (I)
  stability: very stable
Friend leukemia virus [2]
  potentiation of azidothymidine (AZT) in inhibiting splenomegaly in mice: can potentiate azidothymidine (AZT) in inhibiting such splenomegaly in mice
inflammation
  anti-inflammatory activity: has anti-inflammatory activity
Friend leukemia virus [3]
  inhibition of splenomegaly in mice (in words): can inhibit such splenomegally in mice

## OC[C@H]1N=C[C@@H](O)[C@@H]1O [Compound (I), (3R, 4R, 5R)-3,4-dihydroxy-5-hydroxymethyl-1-pyrroline]
[4]; 1 g per kg body weight, intravenous injection
  body weight: body weight gains
[4]; mouse, in vivo, iv
  survival: The mice survived
[5]; compound (I) 10 μg/ml, 16 h, control (0 μg/ml) 260.5, mean of two countings
  Number of giant cells: 246.5
[5]; compound (I) 20 μg/ml, 16 h, control (0 μg/ml) 260.5, mean of two countings
  Number of giant cells: 147.5
[5]; compound (I) 50 μg/ml, 16 h, control (0 μg/ml) 260.5, mean of two countings
  Number of giant cells: 44.5
[5]; compound (I) 100 μg/ml, 16 h, control (0 μg/ml) 260.5, mean of two countings
  Number of giant cells: 9.5
Friend leukemia virus [2]
  potentiation of azidothymidine (AZT) in inhibiting splenomegaly in mice: can potentiate azidothymidine (AZT) in inhibiting such splenomegaly in mice
α-glucosidase
  α-glucosidase inhibiting activity: α-glucosidase inhibiting activity
[6]
  activity against immunosuppressive factors: activity against immunosuppressive factors
Friend leukemia virus [3]
  inhibition of splenomegaly in mice (in words): can inhibit such splenomegally in mice
Friend leukemia virus [3]; intravenous, 20 mg/kg/administration, 19 times, control 1149 ± 220, normal 92 ± 3 mg, mean of 10 mice
  Spleen weight: 840 ± 421 mg
Friend leukemia virus [3]; intravenous, 20 mg/kg/administration, 19 times
  Inhibition: 29%
Friend leukemia virus [3]; intravenous, 80 mg/kg/administration, 19 times, control 1149 ± 220, normal 92 ± 3 mg, mean of 10 mice
  Spleen weight: 667 ± 241 mg
Friend leukemia virus [3]; intravenous, 80 mg/kg/administration, 19 times
  Inhibition: 46%

## O=S(=O)(O)[C@H]1N[C@H](CO)[C@@H](O)[C@@H]1O [Compound (II'), (2R, 3S, 4R, 5R)-3,4-dihydroxy-5-hydroxymethyl-2-pyrrolidinesulfonic acid]
[5]; compound (II') 1 μg/ml, control (0 μg/ml) 173.0 ± 2.0, mean ± SD
  Number of giant cells: 119.5 ± 16.5
[5]; compound (II') 3 μg/ml, control (0 μg/ml) 173.0 ± 2.0, mean ± SD
  Number of giant cells: 106.0 ± 19
[5]; compound (II') 10 μg/ml, control (0 μg/ml) 173.0 ± 2.0, mean ± SD
  Number of giant cells: 89.0 ± 10
[5]; compound (II') 30 μg/ml, control (0 μg/ml) 173.0 ± 2.0, mean ± SD
  Number of giant cells: 53.5 ± 8.5
[5]; compound (II') 100 μg/ml, control (0 μg/ml) 173.0 ± 2.0, mean ± SD
  Number of giant cells: 26.5 ± 3.5
[7]; 10 mg/kg once a day, 12 day, control 0.29 ± 0.13, normal 0.03 ± 0.07
  Paw volume change: 0.16 ± 0.15 mL
[7]; 10 mg/kg once a day, 14 day, control 0.41 ± 0.24, normal 0.05 ± 0.03
  Paw volume change: 0.27 ± 0.21 mL
[7]; 32 mg/kg once a day, 12 day, control 0.29 ± 0.13, normal 0.03 ± 0.07
  Paw volume change: 0.13 ± 0.10 mL
[7]; 32 mg/kg once a day, 14 day, control 0.41 ± 0.24, normal 0.05 ± 0.03
  Paw volume change: 0.19 ± 0.22 mL
[7]; 100 mg/kg once a day, 12 day, control 0.29 ± 0.13, normal 0.03 ± 0.07
  Paw volume change: 0.08 ± 0.11 mL
[7]; 100 mg/kg once a day, 14 day, control 0.41 ± 0.24, normal 0.05 ± 0.03
  Paw volume change: 0.06 ± 0.04 mL
Friend leukemia virus [3]; oral, 10 mg/kg/administration, first 1 hour after infection, control 1073 ± 26, normal 79 ± 2 mg, mean of 8 mice
  Spleen weight: 875 ± 71 mg
Friend leukemia virus [3]; oral, 10 mg/kg/administration, first 1 hour after infection
  Inhibition: 20%
